Measured values reported in patent US12478658B2, “Enhanced efficacy of combination of gemcitabine and phosphatidylserine-targeted nanovesicles against pancreatic cancer” (University of Cincinnati, priority 2020, dated 2025).

Experiments:
[1] = system: MiaPaCa-2 subcutaneous tumors; test: Surface PS of tumor cells isolated from subcutaneous xenografts after GEM in vivo; design: species or system mouse
Experimental: (§1) Cells were isolated 48 hr. following treatment with 40 mg/kg GEM, stained with annexin V-FITC and analyzed by flow cytometry. Only those cells that were negative for PI staining were assessed for annexin V labeling. Less than 10% of the cells (in vitro or in vivo) were killed by the GEM treatment.
For assessment of surface PS, when the subcutaneous tumors were 100-300 mm^3, some mice were treated with 40 mg/kg GEM and the tumors were removed 48 hr. later. The tumors were minced then incubated with 5 ml of collagenase type IV (200 U/ml) at 37° C. for 2 hrs. The cells were passed through a 40 μm filter, washed with PBS then stained with annexin V-FITC and analyzed by flow cytometry.

[2] = system: human pancreatic duct epithelial cells (HPDE); test: Surface PS after GEM exposure in normal pancreatic cells; assay type: cell-based; conditions: response to gemcitabine
Experimental: (§2) Phosphatidylserine levels measurements. Surface membrane PS levels were measured using annexin V-FITC (Invitrogen, Carlsbad, CA) as previously described (Chu et al. PLoS One 2013; 8(10):e75507, Davis et al. Oncotarget 2019; 10:856-868). In brief, cells were harvested using trypsin-EDTA (Thermo Fisher Scientific); the trypsin was inactivated with complete media and the cells were washed with PBS and resuspended at 1,000,000 cells/ml in annexin staining buffer. Aliquots of cells (0.1 ml/tube) were incubated with 10 μl of annexin V-FITC for 15 minutes at room temperature in the dark. Then 400 μl of annexin staining buffer was added to each tube. Samples were kept on ice and analyzed by flow cytometry within 1 hour after addition of 2 μl of 50 μg/ml propidium iodide (PI; to exclude dead cells). The effects of GEM exposure on surface PS levels were studied in human PDAC cell lines (cfPac-1 and Mia-PaCa-2), a mouse PDAC cell line (p53 2.1.1) (Collisson et al. Cancer Discov 2012; 2(8):685-93) and immortalized, non-tumorigenic human pancreatic duct epithelial cells (HPDE). To this end, cells were incubated for 24 or 48 hr. with 10 nM-1 μM GEM and then stained with annexin V-FITC and PI and analyzed by flow cytometry.

[3] = Mouse body weight during treatment; assay type: in vivo; conditions: tumor-bearing mice, compared to control or to GEM alone
Excerpt: The mice treated in FIG. 6 were weighed on the indicated days. […] However, SapC-DOPS prevented the weight loss due to GEM alone. *p<0.01 between saline and GEM alone. #p<0.01 between GEM and SapC-DOPS or GEM and the combination of GEM and SapC-DOPS.

[4] = system: PDAC cells (MiaPaCa-2, cfPac-1); test: Surface PS by annexin V-FITC flow cytometry after GEM exposure in vitro; assay type: cell-based, human
Experimental: as §1
as §2, with “The effects of GEM exposure on surface PS levels were studied in human PDAC cell lines (cfPac-1 and Mia-PaCa-2), a mouse PDAC cell line (p53 2.1.1) (Collisson et al. Cancer Discov 2012; 2(8):685-93) and immortalized, non-tumorigenic human pancreatic duct epithelial cells (HPDE).” left out

[5] = system: cfPac-1, MiaPaCa-2 and p53.2.2.1 cells; test: Cell cycle analysis by Hoechst staining after GEM or SapC-DOPS; assay type: cell-based, human, mouse; conditions: GEM 1-2 μM 24 hrs; SapC-DOPS 20-30 μM 72 hrs
Experimental: For cell cycle analyses of cells treated with GEM or SapC-DOPS, MiaPaCa-2, cfPac-1 and p53.2.2.1 cells were cultured to 70% confluency. Cells (2.5×10^5) were plated overnight in 60 mm cell culture plates. MiaPaCa-2, cfPac-1 and p53.2.2.1 were treated with 1 μM, 2 μM, and 1 μM GEM respectively for 24 hrs. or with 30 μM, 25 μM and 20 μM SapC-DOPS respectively for 72 hrs. (MiaPaCa-2 and p53.2.2.1) or 24 hrs (cfPac-1). Following treatment, 10^6 cells were stained with Hoechst 33342 as described above.

MiaPaCa-2 cells = test: Cell cycle stage targeting in hydroxyurea-synchronized cells; assay type: cell-based, human; conditions: G1 synchronized MiaPaCa-2; 1 μM GEM 24 hrs or 30 μM SapC-DOPS 48 hrs
cfPac-1 cells = test: MTT viability of cells sorted into low and high surface PS populations after GEM; assay type: cell-based, human
Experimental: Cell Sorting. Cells were grown to 60-80% confluency then stained with annexin V-FITC as above but without PI. The cells were then passed through a cell sorter (BD Aria III) and cells with low and high surface PS were collected (˜15% of the cells at each end of the peak; see FIG. 1). The cells were placed in 96 well plates and immediately treated with 0, 25 or 50 nM of GEM. The MTT assay (Roche) was conducted 72 hr later to determine the effect of the GEM on cell viability.

[6] = system: cfPac-1 and MiaPaCa-2 cells; test: Western blot cyclin B1/cyclin D1 ratio after GEM or SapC-DOPS; assay type: cell-based, human; conditions: cfPac-1 and MiaPaCa-2, western blot after treatment
Experimental: Protein expression of cyclins D1 (a G1 marker) and B1 (a G2/M marker) following treatment with GEM or SapC-DOPS was measured by western blot and the cyclin B1 to cyclin D1 ratio was quantified in cfPac-1.
Western blot analyses. Following treatment with GEM or SapC-DOPS, cells were washed with PBS and lysed in RIPA Buffer (Sigma) supplemented with protease inhibitor cocktail tablets (Roche). A total of 30 μg of protein extract was separated using 4-15% Mini-PROTEAN Precast Gels (Bio-Rad) and transferred to Hybond-ECL Nitrocellulose membrane (Biosciences). Membranes were blocked for 1 hr. in 5% nonfat dry milk in 0.1% Tween-20 in PBS at 4° C. Blocked membranes were incubated with primary antibodies overnight at 4° C. Subsequently, membranes were washed 3 times for 10 min. with 0.1% Tween-20 in PBS. Secondary antibodies were incubated for 1 hr. at room temperature. Membranes were washed as above and incubated with SuperSignal West Dura Extended Duration Substrate (Thermo Scientific) for 5 min. Detection was performed using the ChemiDoc Touch Imaging System (Bio-Rad). Image Lab 5.2.1 software (Bio-Rad) was used to quantify the proteins on the western blots.

In the case of `Nc1ccn([C@@H]2O[C@H](CO)[C@@H](O)C2(F)F)c(=O)n1` [GEM, 2′, 2′-difluoro 2′deoxycytidine], the “surface PS in tumor cells isolated from subcutaneous xenografts” value ([1]; 48 hrs after 40 mg/kg GEM in vivo) is reported as “induced an increase in surface PS in tumor cells”, the “cells killed by the GEM treatment” value ([1]; in vitro or in vivo, FIG. 4 treatments) is reported as “Less than 10%” and the “PS surface expression in normal pancreatic cells” value [2] is reported as “no increased PS surface expression”. The mouse weight [3] was “significant decrease in mouse weight”, the “surface PS in viable (PI-negative) PDAC cells” value ([4]; sub-toxic GEM, 48 hr, annexin V-FITC) was “increased surface PS in viable PDAC cells” and the “apoptosis at sub-toxic concentrations” value ([4]; sub-toxic concentrations of GEM, PDAC cells) was under 10%. For the same molecule, the “percentage of cells in G1 phase” value [5] was “significant decrease in the percentage of cells in the G1 phase”, the “percentage of cells in G2/M phase” value [5] was “increased percentage in the G2/M phase” and the “targeting of cells when G1 synchronized cells are treated” value (MiaPaCa-2 cells) was “increased targeting of G1 cells compared to SapC-DOPS”. The “cell death in low vs high surface PS populations” value (cfPac-1 cells; sorted cells, 50 nM GEM) was “cell death was more profound in the low surface PS population compared to the high surface PS population”, the “cell killing in low vs high surface PS populations” value (cfPac-1 cells; sorted cfPac-1 cells, GEM 72 hr, MTT) was “killed more cells from the low surface PS population compared to the high surface PS population” and the “cyclin B1/cyclin D1 protein ratio” value [6] was “an increase in the cyclin B1/cyclin D1 ratio”.
